We go through 1 molecule from patent publication US10889543B2, “Fine-tune modulators of neuronal excitability for neuropsychiatric disorders” (THE BOARD OF REGENTS OF THE UNIVERSITY OF TEXAS SYSTEM, priority 2016, dated 2021).

Residues, ends and D or L forms follow the SMILES beside them. *: point of attachment. Cbz = O=C(OCc1ccccc1)*; Boc = CC(C)(C)OC(=O)*

What all share (assay type): cell-based
Test [1] deals with T1, Nav1.6 channels (Homo sapiens, UniProt Q9UQD0).
T1 construct: expressed in transfected cells; host or cells: HEK-Nav1.6 (HEK293 stably expressing Nav1.6, G418 selection)
The test is described as follows: Whole-cell patch clamp of Na+ currents in HEK-Nav1.6 cells expressing GFP (Nav1.6 channels alone). As to the method:
(§1) To determine the role of compounds of the invention in Nav1.6 channels alone and Nav1.6 channels in the presence of FGF14, 2×2 experimental groups using compound ZL0181, an exemplary embodiment, were designed. HEK-Nav1.6 cells were transiently transfected with GFP or […] and treated with either DMSO (0.15% final concentration, control group) or ZL0181 (20 μM, final concentration) 20-60 min prior to the experiments. […] Thus, ZL0181 inhibits peak current amplitude of Na1.6 current.
(§2) Furthermore, using a range of doses from 1 μM to 100 μM a dose-response profile for ZL0181 in HEK293-Nav1.6 cells alone and HEK-Nav1.6 cells transfected with FGF14 was developed.
(§3) HEK-Nav1.1, […] HEK-Nav1.6 were maintained in medium composed of equal volumes of DMEM and F-12 (Invitrogen) supplemented with 0.05% glucose, 0.5 mm pyruvate, 10% fetal bovine serum, 100 units/ml penicillin, 100 μg/ml streptomycin incubated at 37° C. with 5% CO2. For selection of Nav1.1 and Nav1.2, 500 μg/ml G418 (Invitrogen) was used, and for selection of Nav1.6, 80 μg/ml G418 (Invitrogen) was used. Cells were transfected according to manufacturer's instructions at 90-100% confluency using Lipofectamine 2000 (Invitrogen). See e.g., Shavkunov, A., et al. Assay and drug development technologies 10(2):148-160 (2012).
(§4) Detailed methods for path-clamp experiments is known in the art. See e.g., Ali, S. R., et al., Journal of Biological Chemistry 291:11268 (2016).
(Patch clamp records ionic current or voltage across a cell membrane.)

The target of test [2] is T2, Nav1.6 channel in the presence of FGF14 (Homo sapiens, UniProt Q9UQD0).
T2 construct: expressed in transfected cells; host or cells: HEK-Nav1.6 cells transiently transfected with FGF14-GFP
In words: Whole-cell patch clamp of Na+ currents in HEK-Nav1.6 cells expressing FGF14-GFP. As to the method:
as §1
The role of ZOL181 in Nav1.6 channel in the presence of FGF14 was then investigated. […] Furthermore, the role of ZL0181 to modulate the biophysical properties of Nav1.6 channel in the presence of FGF14 was investigated. In consistency with previous studies, voltage dependence of activation and steady-state inactivation kinetics changes in the cells expressing FGF14-GFP compared with control (FIG. 3C). […] Thus, ZL0181 works synergistically with FGF14 to regulate the peak current amplitude as well as the inactivation kinetics.
as §2, §3, §4

Test [3] addresses T3, FGF14:Nav1.6 complex (Homo sapiens, UniProt Q92915).
T3 construct: FGF14 and the C-tail of Nav1.6 channels are fused to vectors expressing CLuc and NLuc luciferase reporter; expressed in transfected cells; host or cells: HEK293, transient transfection
T3 sequence (Q92915 1-252 isoform Q92915-2): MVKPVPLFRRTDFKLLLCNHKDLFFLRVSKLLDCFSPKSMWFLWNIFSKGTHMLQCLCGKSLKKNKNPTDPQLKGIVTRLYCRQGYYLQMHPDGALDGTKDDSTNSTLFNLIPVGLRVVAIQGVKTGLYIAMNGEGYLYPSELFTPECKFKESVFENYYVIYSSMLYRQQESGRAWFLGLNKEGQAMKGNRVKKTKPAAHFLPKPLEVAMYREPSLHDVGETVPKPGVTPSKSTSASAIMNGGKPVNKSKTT
The test is described as follows: Split-luciferase complementation assay (LCA) in HEK293 cells expressing CLuc-FGF14 and CD4-Nav1.6-NLuc. The conditions noted are these: 50 μM, normalized to DMSO control. As to the method: Detailed methods for LCA can be found is known in the art. See e.g., Shavkunov A. S., et al., Methods in Molecular Biology 1278:497-514 (2015). Statistical values were calculated as mean and standard error of the mean (mean±SEM), unless otherwise specified. The statistical significance (*p<0.05) of different groups was determined by Student's t-test, one-way ANOVA with post-hoc Bonferroni's method or Kruskal-Wallis one-way ANOVA on ranks with post-hoc Dunn's method using Sigma Stat (San Jose, Calif.) and Graph PrismR (La Jolla, Calif.) software. Dose-response modulation was determined by: y=START+(END−START)*x^n/(k^n+x^n) where k, Michaelis constant; n, cooperative sites; x, independent variable; y, dependable variable.
To monitor the role of compounds of the invention in the FGF14:Nav1.6 complex, certain embodiments of the invention were screened by split-luciferase complementation assay (LCA) where FGF14 and the C-tail of Nav1.6 channels are fused to vectors expressing CLuc and NLuc luciferase reporter. Compounds of the invention, as exemplified by, compounds ZL0141, ZL0148, ZL0181, and ZL0182 (see FIG. 1) were tested at 50 μM in HEK293 cells expressing CLuc-FGF14 and CD4:Nav1.6-NLuc. […] None of the tested compounds interfered with the full-length luciferase enzyme (FIG. 2B, Chart C). Dose-response studies were then performed with compounds ZL0148, ZL0181, and ZL0182 against the FGF14:Nav1.6 complex.

Test [4] has as its target T4, Nav1.1 channels (Homo sapiens, UniProt P35498).
T4 construct: expressed in transfected cells
The test is described as follows: Patch clamp of Na+ currents in Nav1.1 channels. As to the method:
(§5) The role of ZL0181 in regulating Nav1.1 and Nav1.2 channels was also investigated.
as §3, §4

Test [5] has as its target T5, Nav1.2 channels (Homo sapiens, UniProt Q99250).
T5 construct: expressed in transfected cells
In words: Patch clamp of Na+ currents in Nav1.2 channels. As to the method: as §5, §3, §4

T1 sequence (Q9UQD0 whole entry): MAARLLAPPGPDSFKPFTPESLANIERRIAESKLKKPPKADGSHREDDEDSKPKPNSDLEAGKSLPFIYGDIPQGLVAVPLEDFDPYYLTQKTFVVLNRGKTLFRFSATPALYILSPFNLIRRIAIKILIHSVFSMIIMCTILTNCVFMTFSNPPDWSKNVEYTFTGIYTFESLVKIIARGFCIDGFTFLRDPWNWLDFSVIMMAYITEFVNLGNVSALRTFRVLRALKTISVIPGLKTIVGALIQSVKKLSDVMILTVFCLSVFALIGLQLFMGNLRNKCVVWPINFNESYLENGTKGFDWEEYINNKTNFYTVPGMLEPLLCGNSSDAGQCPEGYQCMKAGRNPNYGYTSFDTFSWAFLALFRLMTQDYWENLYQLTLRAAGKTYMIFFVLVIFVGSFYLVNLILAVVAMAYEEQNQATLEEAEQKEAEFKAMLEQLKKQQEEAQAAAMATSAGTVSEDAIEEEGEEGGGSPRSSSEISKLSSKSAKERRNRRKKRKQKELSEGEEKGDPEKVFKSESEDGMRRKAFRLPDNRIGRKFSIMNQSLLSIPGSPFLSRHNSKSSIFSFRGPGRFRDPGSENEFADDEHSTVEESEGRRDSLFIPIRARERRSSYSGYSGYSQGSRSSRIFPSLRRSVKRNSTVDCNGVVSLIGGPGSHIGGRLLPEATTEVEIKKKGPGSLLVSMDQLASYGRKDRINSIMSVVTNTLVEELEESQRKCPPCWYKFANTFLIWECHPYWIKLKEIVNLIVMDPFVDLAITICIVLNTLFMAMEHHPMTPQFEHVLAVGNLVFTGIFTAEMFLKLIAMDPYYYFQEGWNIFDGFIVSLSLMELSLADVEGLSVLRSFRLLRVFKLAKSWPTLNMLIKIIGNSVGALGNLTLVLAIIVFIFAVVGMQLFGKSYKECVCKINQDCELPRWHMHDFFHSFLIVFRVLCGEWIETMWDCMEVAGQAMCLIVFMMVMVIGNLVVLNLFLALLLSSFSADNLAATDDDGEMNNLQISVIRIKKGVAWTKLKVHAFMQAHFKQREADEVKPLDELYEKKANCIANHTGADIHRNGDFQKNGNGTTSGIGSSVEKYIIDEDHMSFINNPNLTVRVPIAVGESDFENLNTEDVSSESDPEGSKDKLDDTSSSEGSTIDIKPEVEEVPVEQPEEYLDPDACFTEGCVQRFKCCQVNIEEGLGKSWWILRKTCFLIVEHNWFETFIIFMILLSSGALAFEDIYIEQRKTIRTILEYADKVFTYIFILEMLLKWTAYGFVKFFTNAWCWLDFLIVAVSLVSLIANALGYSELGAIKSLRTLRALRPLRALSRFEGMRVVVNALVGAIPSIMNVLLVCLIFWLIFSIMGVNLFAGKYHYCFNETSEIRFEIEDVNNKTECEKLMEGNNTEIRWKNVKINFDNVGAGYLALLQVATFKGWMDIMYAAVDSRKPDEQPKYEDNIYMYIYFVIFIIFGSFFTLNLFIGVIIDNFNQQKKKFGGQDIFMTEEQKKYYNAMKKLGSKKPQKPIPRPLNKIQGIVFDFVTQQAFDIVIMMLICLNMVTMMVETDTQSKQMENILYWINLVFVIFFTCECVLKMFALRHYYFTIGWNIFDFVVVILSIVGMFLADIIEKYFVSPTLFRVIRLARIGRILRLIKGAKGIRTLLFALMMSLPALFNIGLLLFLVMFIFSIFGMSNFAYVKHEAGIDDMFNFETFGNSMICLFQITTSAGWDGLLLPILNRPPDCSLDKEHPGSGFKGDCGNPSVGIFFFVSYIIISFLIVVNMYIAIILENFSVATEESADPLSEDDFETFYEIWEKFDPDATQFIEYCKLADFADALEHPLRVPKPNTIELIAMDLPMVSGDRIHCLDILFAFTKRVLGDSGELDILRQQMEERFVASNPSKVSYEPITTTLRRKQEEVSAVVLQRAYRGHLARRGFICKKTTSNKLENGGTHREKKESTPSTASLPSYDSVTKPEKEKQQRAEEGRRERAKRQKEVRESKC
T2 sequence (Q9UQD0 whole entry): as above
T5 sequence (Q99250 whole entry): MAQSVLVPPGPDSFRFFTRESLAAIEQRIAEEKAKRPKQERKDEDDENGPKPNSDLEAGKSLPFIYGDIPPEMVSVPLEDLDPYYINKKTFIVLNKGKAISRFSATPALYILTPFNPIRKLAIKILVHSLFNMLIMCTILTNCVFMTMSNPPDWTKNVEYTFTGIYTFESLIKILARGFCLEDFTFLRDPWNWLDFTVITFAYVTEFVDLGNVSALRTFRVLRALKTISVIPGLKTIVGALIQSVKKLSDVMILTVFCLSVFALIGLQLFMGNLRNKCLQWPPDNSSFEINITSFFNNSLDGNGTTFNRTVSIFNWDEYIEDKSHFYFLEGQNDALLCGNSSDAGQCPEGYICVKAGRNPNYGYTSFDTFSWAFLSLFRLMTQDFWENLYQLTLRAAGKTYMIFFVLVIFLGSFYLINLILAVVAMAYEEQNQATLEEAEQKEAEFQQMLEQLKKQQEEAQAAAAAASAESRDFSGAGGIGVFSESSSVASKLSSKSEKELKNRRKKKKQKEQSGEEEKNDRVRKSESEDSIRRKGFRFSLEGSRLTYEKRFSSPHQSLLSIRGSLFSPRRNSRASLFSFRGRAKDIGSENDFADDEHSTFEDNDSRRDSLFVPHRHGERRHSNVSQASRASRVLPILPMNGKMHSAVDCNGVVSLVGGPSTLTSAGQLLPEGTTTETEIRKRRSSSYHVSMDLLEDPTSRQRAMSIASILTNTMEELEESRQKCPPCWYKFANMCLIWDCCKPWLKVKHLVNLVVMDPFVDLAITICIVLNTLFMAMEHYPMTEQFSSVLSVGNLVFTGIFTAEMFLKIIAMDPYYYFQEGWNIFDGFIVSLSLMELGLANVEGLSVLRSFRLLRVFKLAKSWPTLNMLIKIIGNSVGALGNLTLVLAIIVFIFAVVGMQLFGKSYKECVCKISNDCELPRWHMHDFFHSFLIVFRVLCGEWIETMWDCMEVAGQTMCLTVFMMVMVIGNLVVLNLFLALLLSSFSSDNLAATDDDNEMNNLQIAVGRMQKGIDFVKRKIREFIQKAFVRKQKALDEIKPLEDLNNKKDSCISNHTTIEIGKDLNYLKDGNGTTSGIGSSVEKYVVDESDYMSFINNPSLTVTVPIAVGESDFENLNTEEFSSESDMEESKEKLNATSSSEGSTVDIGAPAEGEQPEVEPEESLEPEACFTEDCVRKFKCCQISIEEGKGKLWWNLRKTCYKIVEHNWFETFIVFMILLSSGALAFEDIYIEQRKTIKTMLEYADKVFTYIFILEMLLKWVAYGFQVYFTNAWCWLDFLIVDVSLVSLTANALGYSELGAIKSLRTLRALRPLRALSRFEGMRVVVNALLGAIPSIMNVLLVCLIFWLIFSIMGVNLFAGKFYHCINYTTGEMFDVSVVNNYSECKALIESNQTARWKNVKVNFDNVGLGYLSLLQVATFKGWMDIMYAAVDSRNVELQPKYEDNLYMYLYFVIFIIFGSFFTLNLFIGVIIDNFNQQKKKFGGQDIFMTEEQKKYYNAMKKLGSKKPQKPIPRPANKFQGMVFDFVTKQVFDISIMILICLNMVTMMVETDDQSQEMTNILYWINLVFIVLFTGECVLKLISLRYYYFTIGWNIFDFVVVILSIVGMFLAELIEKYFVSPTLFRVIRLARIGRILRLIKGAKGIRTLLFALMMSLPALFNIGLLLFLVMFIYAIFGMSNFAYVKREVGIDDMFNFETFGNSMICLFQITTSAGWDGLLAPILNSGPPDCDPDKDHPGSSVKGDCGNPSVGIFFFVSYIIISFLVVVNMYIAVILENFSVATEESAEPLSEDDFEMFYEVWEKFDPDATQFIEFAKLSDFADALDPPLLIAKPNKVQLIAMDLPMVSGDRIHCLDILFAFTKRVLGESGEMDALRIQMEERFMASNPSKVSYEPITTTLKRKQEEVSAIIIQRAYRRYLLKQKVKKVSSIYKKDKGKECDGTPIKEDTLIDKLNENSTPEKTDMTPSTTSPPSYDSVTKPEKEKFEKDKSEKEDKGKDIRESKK

For `CC(C)C[C@H](NC(=O)[C@H](Cc1ccccc1)NC(=O)OCc1ccccc1)C(=O)N1CCC[C@H]1C(=O)N[C@@H](CCCCNC(=O)OC(C)(C)C)C(N)=O` [ZL0181, Z-Phe-Leu-Pro-Lys(Boc)-NH2] (Cbz-FLPK(Boc)-NH2), the “activation and inactivation properties of Nav channel alone” value in test [1] (20 μM, HEK-Nav1.6 cells with GFP) was “does not change activation and inactivation properties”. Besides, the IC50 (commonly the point on the concentration scale where inhibition reaches its midpoint) in test [1] (HEK293-Nav1.6 cells alone, doses 1 μM to 100 μM, read-out: IC50, inhibition of Nav1.6 encoded currents) is 19.7 ± 5.7 µM; in test [2] (HEK-Nav1.6 cells transfected with FGF14, doses 1 μM to 100 μM, read-out: IC50, inhibition of Nav1.6 encoded currents in presence of FGF14), 11.5 ± 1.3 µM. In addition, in test [1] (HEK-Nav1.6 cells with GFP, pretreated with 20 μM, n=12, DMSO control −73.8±13.6), the “Nav1.6-mediated peak current density” value is −20.9±3.4 pA/pF. In test [2] (FGF14-GFP-expressing HEK-Nav1.6 cells, 20 μM), the “steady-state inactivation (depolarizing shift induced by FGF14-GFP)” value is listed as “rescued the depolarizing shift of the steady-state inactivation induced by FGF14-GFP expression back to control levels”. Besides, the “Na+ current peak amplitude (peak current density)” value in test [2] (FGF14-GFP-expressing HEK-Nav1.6 cells, 20 μM, n=19, DMSO control −18.1±3.8) was −7.4±4.4 pA/pF. Further, the “luminescence response compared to control (DMSO)” value in test [3] is recorded as 75±6%. Besides, the “peak current amplitude in Nav1.1 channels” value in test [4] is recorded as “suppresses peak current amplitude”. For the same molecule, the “synergy with FGF14 on Na+ current and rescue of V1/2 of inactivation, Nav1.1” value in test [4] (in presence of FGF14) is recorded as “does neither act synergistically to further suppress Na+ current in presence of FGF14 or rescue the voltage-dependence inactivation property”. In test [5], the “peak current amplitude in Nav1.2 channels” value is “suppresses peak current amplitude”. Also, the “synergy with FGF14 on Na+ current and rescue of V1/2 of inactivation, Nav1.2” value in test [5] (in presence of FGF14) is reported as “does neither act synergistically to further suppress Na+ current in presence of FGF14 or rescue the voltage-dependence inactivation property”.
